The test system of data set [1] is black sigatoka. In words: Black sigatoka on banana plants, single leaf test, leaf 3 curative, Bravo 72 SC. Type of data set: in vivo. Particulars: for Area infected (%) / Efficacy: 16 DAA, leaf 3 curative, Bravo 72 SC 0.875 liter/ha, phosphites 3 L/ha; for Efficacy: vs untreated control. Here is the method:
A single leaf test was established in a research station located in the community of “Anita Grande,” county of Jimenez, province of Limon, Costa Rica (latitude 10°15′14.15″N, longitude 83°44′20.29″W).
Every treatment was established in individual plants. Treatments were applied to leaf number 1 to determine their effect as preventive. Leaf position is counted from top to bottom, whereby leaf number 1 is closest to the unfolded leaf. Treatments were distributed systematically to facilitate their location in the field.
Product applications were done in an area of 10×10 cm, with a special equipment designed to simulate aerial applications. Application was done at 35 pound-force per square inch. Since weather conditions were highly conducive for disease development, and inoculum density was very high, no artificial inoculation was done. All treatments were applied to the same position on the leaf to minimize experimental error. All treatments were applied at the equivalent volume of 25 L ha^−1, as it is done commercially. A total of 3 sprays were applied, application A at Day 0, application B at 7 days after application A (DAA), and application C at day 13 DAA. VOLLEY® 88 OL was sprayed at 5.525 L/ha and the different phosphites were applied at the same PO3 concentration of 2 mol/l and were sprayed at 3 liter/ha.
For the evaluation of the efficacy, the diseased area that was affected in the 10×10 cm leaf area was recorded. Evaluations were done 23, 30 and 36 DAA. Efficacy was calculated by comparing the treatments against the untreated control.
Similar to Example 9, with the following differences: Treatments and measurements were applied to leaf number 3, to determine their effect as curative, and one measurement was performed at 8 days after application A (DAA).
Similar to Example 10, with the following differences: Bravo 72 SC (chlorothalonil; Syngenta) was applied at 0.875 liter/ha instead of DITHANE® 60 SC and the phosphites were spayed at a rate of 3 L/ha. One measurement was done at 16 DAA.

In data set [2] the test system is powdery mildew. In words: Powdery mildew on cucumber leaf disks. Type of data set: in vivo. Particulars: for Surface area (%): phosphite 16 mM, sulfur 0.1 g/L. Here is the method:
Leaves were taken from 5 to 6 week old tomato plant. Per treatment 5 ml was sprayed over 5 leaves and dried for 1 hour. Circular disks were punched from the treated leaves with a diameter of 11 mm. 5 disks per treatment were put on water agar in 90 mm ø petri dishes. Water agar was made by sterilizing agar-agar (5 g/L, Carl Roth), benzimidazole (30 mg/L, Sigma-Aldrich) and antibiotic tetracycline hydrochloride (25 mg/L, Carl Roth) in water. Disks were infected by brushing powdery mildew spores from an infected leave until disks were visually covered by spores. After 10 days the surface area covered by powdery mildew was measured by putting pictures of the disks through an online image analyzer. Efficacy was calculated by comparing the treatments against the untreated control. Replicates: 20 disks were used per treatment.
All phosphite concentrations were tested at a concentration of 16 mM of phosphite.
Similar to Example 7 with the following differences: Leaf disk were taken from the dicotyledon leaves when the cucumber was around 2 weeks old. 5 disks per treatment were put on water agar in 90 mm ø petri dishes, with a total of 10 leaf disks per treatment. The formulated sulfur was tested at a concentration of 0.1 g sulfur/L. Assessment was done after 14 and 21 days after infection.

The subject of data set [3] is Plasmopara viticola. In words: Downy mildew on grapevine plants in greenhouse, phosphites and DITHANE Neotec. Format: in vivo. The settings on record: for Incidence: 21 days after the second treatment application, phosphite 1.50 l of 2 M solution/100 l, DITHANE Neotec 0.05 kg/100 liter water. Here is the method: The trial was conducted with young plants of grapevine cultivar MERLOT in a greenhouse. Treatments were applied twice, once when 3 to 4 leaves were unfolded and the second application 10 days later. Each treatment had 4 plots as replications. The experimental set up was completely randomized and each plot had 3 plants. Inoculation of the plants with the pathogen Plasmopara viticola was performed 4 days after the second application. The suspension of the spores in water was prepared at the concentration of 20,000 to 40,000 spores/ml. All foliage ware inoculated. The different phosphites were applied at the same molar concentration of phosphite. With the high phosphite treatments, a concentration of 1.50 1 of a 2 M solution/100 1 was used and with the low phosphite treatment a concentration of 0.75 1 of a 2 M solution/100 1. […] An assessment on incidence and severity was performed 21 and 28 days after the second application. Efficacy was calculated for severity in comparison to untreated control infected. Similar to Example 5, with the following amendments: […] One measurement was performed at 21 days after the second application.

For data set [4], the system named is Plasmopara viticola. The data set is described as follows: Downy mildew on grapevine plants in greenhouse, phosphites and REVUS. Type of data set: in vivo. The settings on record: conclusion from Table 5. Here is the method:
The trial was conducted with young plants of grapevine cultivar MERLOT in a greenhouse. […] Treatments were applied twice, once when 3 to 4 leaves were unfolded and the second application 10 days later. […] Inoculation of the plants with the pathogen Plasmopara viticola was performed 4 days after the second application. The suspension of the spores in water was prepared at the concentration of 20,000 to 40,000 spores/ml. All foliage ware inoculated. The different phosphites were applied at the same molar concentration of phosphite. With the high phosphite treatments, a concentration of 1.50 1 of a 2 M solution/100 1 was used and with the low phosphite treatment a concentration of 0.75 1 of a 2 M solution/100 1. […] An assessment on incidence and severity was performed 21 and 28 days after the second application. Efficacy was calculated for severity in comparison to untreated control infected.

In data set [5] the test system is grapevine plants. In words: Phytotoxicity on grapevine plants. Details: species or system grapevine cultivar MERLOT. The settings on record: in vivo.
Method: Treatments were applied twice, once when 3 to 4 leaves were unfolded and the second application 10 days later. […] The experimental set up was completely randomized and each plot had 3 plants. Inoculation of the plants with the pathogen Plasmopara viticola was performed 4 days after the second application. The suspension of the spores in water was prepared at the concentration of 20,000 to 40,000 spores/ml. All foliage ware inoculated. The different phosphites were applied at the same molar concentration of phosphite. With the high phosphite treatments, a concentration of 1.50 1 of a 2 M solution/100 1 was used and with the low phosphite treatment a concentration of 0.75 1 of a 2 M solution/100 1. REVUS® was used with a standard concentration of 0.015 liter/100 liter. An assessment on incidence and severity was performed 21 and 28 days after the second application. Efficacy was calculated for severity in comparison to untreated control infected.

On to `N.N.O=[PH](O)O` [(NH4)2HPO3], for which, in data set [1], the “Area infected (%)” value was determined as 51.0% and the Efficacy is listed as 28.2. In data set [2] (Day 14 after infection), the “Surface area (%)” value is listed as 7.21%. For the same compound, the “Surface area (%)” value in data set [2] (Day 21 after infection) is 5.61%.

In the case of `O=[PH]([O-])[O-].[K+].[K+]` [Treatment K2HPO3], the Incidence in data set [3] came to 5.0. In data set [1], the “Area infected (%)” value is listed as 68.0% and the Efficacy amounted to 4.2. Also, in data set [2] (Day 14 after infection), the “Surface area (%)” value is 5.18%. Moreover, in data set [2] (Day 21 after infection), the “Surface area (%)” value amounted to 4.84%.

On to disodium hydrogen phosphite [Na2HPO3], for which the “Increase of the fungal efficacy of REVUS compared with other phosphite salts” value in data set [4] is given as “increases the fungal efficacy of REVUS® the best”. The compound also returned an Incidence in data set [3] of 10.0. Besides, in data set [3] (conclusion from Table 6), the “Increase of the fungal efficacy of DITHANE Neotec compared with other phosphite salts” value is given as “increases the fungal efficacy of DITHANE® Neotec the best”. Also, in data set [1], the “Area infected (%)” value was determined as 68.0% and the Efficacy was 4.2. In addition, in data set [1] (conclusion from Table 11), the “Increase of the fungal efficacy of Bravo 72 SC compared with other phosphite salts” value was “increases the fungal efficacy of Bravo 72 SC the best”. Also, in data set [2] (Day 14 after infection), the “Surface area (%)” value amounted to 9.15%. Moreover, the “Surface area (%)” value in data set [2] (Day 21 after infection) is 7.38%. The “Increase of the fungal efficacy of sulfur compared with other phosphite salts” value in data set [2] (conclusion from Table 12) is “increases the fungal efficacy of sulfur the best”. Also, the “Phytotox (%)” value in data set [5] is 0%.

The values are drawn from US20190254285A1, “SODIUM PHOSPHITE COMBINATIONS” (priority 2016, published 2019).
